# Columns and labels:
# blood brain barrier [1] = assay: Fluorescently labeled dextran extravasation into mouse brain (fluorimetry); assay type: in vivo, mice
# Procedure: (§1) The adenosine receptor agonists NECA, CCPA, CGS 21860, and SCH 58261 (Tocris, Ellisville, Mo.) were each dissolved in DMSO then diluted in PBS to the desired concentration; in most cases final DMSO concentrations were <0.5% (vol/vol). Lexiscan (Regadenoson; TRC, Inc., Toronto) was dissolved in PBS. For vehicle controls, DMSO was diluted in PBS to the same concentration. Dehydrated dextrans labeled with either FITC or Texas Red (Invitrogen, Carlsbad, Calif.) were re-suspended in PBS to 10 mg/ml. All experiments involving dextran injection used 1.0 mg dextran in PBS. In experiments where drug and dextran were injected concomitantly, 1.0 mg of dextran was mixed with the drug to the desired concentration in a final volume of 200 μl. In dose-response experiments, drugs and dextrans were injected concomitantly. All injections, except injections of SCH 58261, were retro-orbital i.v. with a 27-gauge needle. In the SCH 58261 experiment, SCH 58261 injections, 1 mg/kg, were intraperitoneal and mice were pre-dosed with this concentration daily for 4 days prior to the day of the experiment. An additional injection was administered at the time of the experiment. Vehicle/drug and dextrans were injected on day 5 and tissues were collected 3 h after vehicle/drug administration. In Lexiscan experiments, Lexiscan was administered i.v. with 3 injections, 5 min apart and tissues were collected at 15 min unless otherwise indicated.
# In dose-response experiments and experiments with the A1 AR and A2A AR knock-out mice, drugs and dextrans were injected concomitantly. After 3 h, the mice were anesthetized with ketamine/xylazine and subjected to a nose cone containing isoflurane. They were perfused with 25-50 ml ice-cold PBS through the left ventricle of the heart then decapitated. Their brains were removed, weighed and frozen for later analysis.
# (§2) Ice-cold 50 mMTris-Cl (pH 7.6) was added to frozen brains (100 μl per 100 mg brain) and were to thawed on ice. They were homogenized with a dounce homogenizer and centrifuged at […] in a microfuge for 30 min at room temperature (rt). The supernatants were transferred to new tubes and an equal volume absolute methanol was added. The samples were centrifuged again at […] for 30 min at rt. Supernatant (200 μl) was transferred to a Corning costar 96 well black polystyrene assay plate (clear bottom). Additionally, a series of standards containing 0.001-10 pg/ml dextran in 50% Tris-Cl/50% absolute methanol (vol/vol) was added to each plate. Absolute concentrations of dextrans were derived from these standard curves. Fluorimetric analysis was performed on a BioTek (Winooski, Vt.) Synergy 4. FITC-dextran was detected at 488/519 (excitation/emission) and Texas Red-dextran was detected at 592/618.
# blood brain barrier [2] = assay: Fluorescently labeled dextran extravasation into rat brain (fluorimetry); assay type: in vivo; conditions: rats
# Procedure: as §1
# as §2, with “Additionally, a series of standards containing 0.001-10 pg/ml dextran in 50% Tris-Cl/50% absolute methanol (vol/vol) was added to each plate. Absolute concentrations of dextrans were derived from these standard curves. Fluorimetric analysis was performed on a BioTek (Winooski, Vt.) Synergy 4.” left out
# Bend.3 cells [3] = assay: Transendothelial cell electrical resistance (TEER) assay; assay type: cell-based; conditions: mouse BEC monolayers, 1 μM, vs vehicle or media alone
# Procedure: Bend.3 cells were grown in ATCC-formulated DMEM supplemented with 10% FBS on 24-well transwell inserts, 8 μm pore size (BD Falcon, Bedford, Mass.) until a monolayer was established. TEER was assessed using a Voltohmeter (EVOMX, World Precision Instruments, Sarasota, Fla.). Background resistance from un-seeded transwells was subtracted from recorded values to determine absolute TEER values. Change in absolute TEER from T0 for each individual transwell was expressed as percentage change and then averaged for each treatment group.
# Bend.3 cells [4] = assay: Albumin uptake assay; assay type: cell-based, mouse; conditions: BECs, 1 μM, 30 minutes, vs media and vehicle
# Procedure: Bend.3 cells grown on collagen coated coverslips were incubated with albumin-alexafluor 594 (50 mg/ml) (Invitrogen) and either media alone, DMSO vehicle, NECA (1 μM), or Lexiscan (1 μM) for 30 minutes. Albumin uptake was visualized (albumin=red) utilizing the Zeiss Axio Imager M1 fluorescent microscope. Total albumin fluorescence was recorded using Zeiss Axio Vision software, and measured utilizing Image-J software.
# Bend.3 cells [5] = assay: F-actin (phalloidin) staining of endothelial cells; assay type: cell-based, mouse; conditions: BECs, 1 μM, 3 or 30 min, vs vehicle
# Procedure: Bend.3 cells were grown (as described above) on circular cover slips in 24-well plates. Cells were treated for 3 or 30 min with 1 μM CCPA, 1 μM […], DMSO or media alone. Cover slips were washed with PBS, fixed in 4% paraformaldahyde, washed again in PBS and then permeabilized with 0.5% TritonX-100 in PBS. After washing in PBS/1% BSA, cover slips were blocked with 1% BSA then stained with Phallodin-Alexa 568. Cover slips were washed and mounted on slides with ProlongGold containing DAPI (Invitrogen). Images were obtained on an Olympus BX51 fluorescent microscope.
# Bend.3 cells [6] = assay: Tight junction molecule staining (ZO-1, Claudin-5, Occludin); assay type: cell-based, mouse; conditions: 1 μM, 1 h
# Procedure: Bend.3 cells grown on collagen coated coverslips were incubated with DMSO vehicle, NECA (1 μM), or Lexiscan (1 μM) for 1 h. Cells were washed with PBS, fixed with 4% paraformaldehyde, and permeabilized with 0.5% Triton-X in PBS. Cells were blocked with PBS/BSA/goat serum and then stained with antibodies (Invitrogen) against either ZO-1 (1A12), Claudin-5 (34-1600), or Occludin (3F10). Following a wash step, cells were incubated with either goat anti-rabbit IgTexas Red-X or goat anti-mouse IgCy5 (Invitrogen). Cover slips were washed and mounted on slides with ProlongGold containing DAPI. Images were obtained on a Zeiss Axio Imager M1 fluorescent microscope.
# [7] = mice, single i.v. injection (0.05 mg/kg)
smiles,measurement,setting,value
CNC(=O)c1cnn(-c2nc(N)c3ncn([C@@H]4O[C@H](CO)[C@@H](O)[C@H]4O)c3n2)c1 [Lexiscan],magnitude of increased BBB permeability compared with NECA,blood brain barrier [1]; i.v. administration,much greater than the magnitude of increased permeability after NECA administration
same,"BBB permeability to 10,000 Da dextrans","blood brain barrier [1]; mice, i.v. administration","increase BBB permeability to 10,000 Da dextrans"
same,time by which BBB permeability returned to baseline,blood brain barrier [1]; [7],≤ 180 min
same,time of maximum increased BBB permeability,blood brain barrier [1]; [7],30 min
same,time after which FITC-dextran was detectable in the brain,"blood brain barrier [1]; mice, single injection",5 min
same,labeled-dextran levels in brain,blood brain barrier [2]; 3 injections over 15 min,dramatically high levels of labeled-dextran
same,"increase in labeled-dextran, multiple doses compared to single injections",blood brain barrier [2]; 3 injections vs single injection,more than 20 fold
same,BBB permeability,blood brain barrier [2]; i.v. administration,increased BBB permeability in rats
same,TEER,Bend.3 cells [3],decreases in TEER
same,rate of fluorescently-labeled albumin uptake,Bend.3 cells [4],did not affect the rate of fluorescently-labeled albumin uptake
same,actinomyosin stress fiber formation,Bend.3 cells [5],marked induction of actinomycin stress fibers
same,ZO-1 and claudin-5 expression,Bend.3 cells [6],discreet alterations in ZO-1 and claudin-5
same,occludin expression,Bend.3 cells [6],severely diminished occludin expression

# — US20130224110A1, “USE OF ADENOSINE RECEPTOR SIGNALING TO MODULATE PERMEABILITY OF BLOOD-BRAIN BARRIER” (CORNELL UNIVERSITY, priority 2010, published 2013)
